Assay results: ChEMBL document CHEMBL5512611, “Discovery of matrix metalloproteinase inhibitors as anti-skin photoaging agents” (Eur J Med Chem, 2024)

Experiments:
[1] = Downregulation of UVB irradiation-induced MMP-1 expression in HDF cells at 20 uM measured after 24 hrs by Western blot analysis relative to control; format: functional, Homo sapiens, NHDF
[2] = Downregulation of UVB irradiation-induced MMP-3 expression in HDF cells at 20 uM measured after 24 hrs by Western blot analysis relative to control; format: functional, Homo sapiens, NHDF
[3] = target: T1, 72 kDa type IV collagenase (Homo sapiens, UniProt P08253); test: Inhibition of recombinant MMP-2 (unknown origin)
T1 sequence (P08253 whole entry): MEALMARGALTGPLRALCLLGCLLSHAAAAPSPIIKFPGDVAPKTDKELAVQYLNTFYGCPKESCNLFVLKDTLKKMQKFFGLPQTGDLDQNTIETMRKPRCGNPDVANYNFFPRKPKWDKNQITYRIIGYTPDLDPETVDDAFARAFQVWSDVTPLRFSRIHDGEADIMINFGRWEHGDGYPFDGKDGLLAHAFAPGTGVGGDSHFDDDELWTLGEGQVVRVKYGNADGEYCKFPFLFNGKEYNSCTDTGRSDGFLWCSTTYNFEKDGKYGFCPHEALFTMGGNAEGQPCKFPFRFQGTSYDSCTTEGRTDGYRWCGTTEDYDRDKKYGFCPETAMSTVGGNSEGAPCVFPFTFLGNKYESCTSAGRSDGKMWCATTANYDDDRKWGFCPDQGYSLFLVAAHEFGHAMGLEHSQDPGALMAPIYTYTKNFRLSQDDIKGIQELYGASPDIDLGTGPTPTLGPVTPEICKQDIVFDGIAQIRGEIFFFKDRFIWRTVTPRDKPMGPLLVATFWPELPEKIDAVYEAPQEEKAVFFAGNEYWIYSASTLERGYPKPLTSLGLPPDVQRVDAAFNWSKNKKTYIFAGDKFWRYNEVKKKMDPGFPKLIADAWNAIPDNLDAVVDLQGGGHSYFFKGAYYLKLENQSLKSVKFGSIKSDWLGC

Stromelysin-2 = Stromelysin-2 (Homo sapiens, UniProt P09238); test: Inhibition of MMP-10 (unknown origin) using 5-FAM-Pro-Leu-OH as substrate by fluorimetric assay
Chain of Stromelysin-2 (P09238 whole entry): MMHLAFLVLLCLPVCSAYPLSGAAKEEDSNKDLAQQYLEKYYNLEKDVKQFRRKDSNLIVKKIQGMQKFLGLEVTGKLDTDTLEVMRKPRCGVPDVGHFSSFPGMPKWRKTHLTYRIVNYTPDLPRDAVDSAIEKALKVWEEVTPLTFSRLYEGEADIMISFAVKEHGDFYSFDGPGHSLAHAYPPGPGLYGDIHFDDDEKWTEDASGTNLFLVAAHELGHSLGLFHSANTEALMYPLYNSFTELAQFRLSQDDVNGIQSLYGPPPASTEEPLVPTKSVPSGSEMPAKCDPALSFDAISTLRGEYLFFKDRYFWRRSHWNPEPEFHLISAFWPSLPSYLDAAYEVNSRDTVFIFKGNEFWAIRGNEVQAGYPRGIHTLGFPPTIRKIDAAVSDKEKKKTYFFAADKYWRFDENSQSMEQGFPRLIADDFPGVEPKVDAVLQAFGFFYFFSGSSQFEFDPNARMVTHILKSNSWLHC

[4] = target: Matrix metalloproteinase-9 (Homo sapiens, UniProt P14780); test: Inhibition of human MMP-9 using 7-methoxycoumarin-4-yl)acetyl-Pro-Leu-Gly-Leu-(N3-(2,4-dinitrophenyl)-L-2,3-diaminopropionyl)-Ala-Arg-NH2 as substrate preincubated for 5 mins followed by enzyme addition and measured after 15 mins by fluorescence based analysis
Chain of Matrix metalloproteinase-9 (P14780 whole entry): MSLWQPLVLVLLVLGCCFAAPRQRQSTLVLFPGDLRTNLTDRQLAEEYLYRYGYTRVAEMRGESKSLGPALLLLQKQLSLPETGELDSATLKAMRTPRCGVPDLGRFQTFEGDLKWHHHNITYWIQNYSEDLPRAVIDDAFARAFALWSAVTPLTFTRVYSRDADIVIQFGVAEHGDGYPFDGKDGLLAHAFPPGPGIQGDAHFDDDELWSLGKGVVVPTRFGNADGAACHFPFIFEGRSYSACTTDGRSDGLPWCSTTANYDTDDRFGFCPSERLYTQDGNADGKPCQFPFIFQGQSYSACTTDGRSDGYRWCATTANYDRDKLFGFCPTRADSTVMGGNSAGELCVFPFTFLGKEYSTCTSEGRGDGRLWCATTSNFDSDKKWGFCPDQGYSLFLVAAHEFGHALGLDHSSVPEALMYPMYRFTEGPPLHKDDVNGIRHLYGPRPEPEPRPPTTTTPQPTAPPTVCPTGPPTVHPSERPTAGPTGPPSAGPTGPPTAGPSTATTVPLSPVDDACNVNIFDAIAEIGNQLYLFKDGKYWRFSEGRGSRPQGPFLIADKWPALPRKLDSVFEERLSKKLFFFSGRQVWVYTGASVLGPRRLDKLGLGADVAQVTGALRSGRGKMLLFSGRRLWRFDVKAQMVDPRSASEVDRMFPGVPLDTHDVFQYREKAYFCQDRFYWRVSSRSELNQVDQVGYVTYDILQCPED

[5] = target: Macrophage metalloelastase (Homo sapiens, UniProt P39900); test: Inhibition of human MMP-12 using 7-methoxycoumarin-4-yl)acetyl-Pro-Leu-Gly-Leu-(N3-(2,4-dinitrophenyl)-L-2,3-diaminopropionyl)-Ala-Arg-NH2 as substrate preincubated for 5 mins followed by enzyme addition and measured after 15 mins by fluorescence based analysis
Chain of Macrophage metalloelastase (P39900 whole entry): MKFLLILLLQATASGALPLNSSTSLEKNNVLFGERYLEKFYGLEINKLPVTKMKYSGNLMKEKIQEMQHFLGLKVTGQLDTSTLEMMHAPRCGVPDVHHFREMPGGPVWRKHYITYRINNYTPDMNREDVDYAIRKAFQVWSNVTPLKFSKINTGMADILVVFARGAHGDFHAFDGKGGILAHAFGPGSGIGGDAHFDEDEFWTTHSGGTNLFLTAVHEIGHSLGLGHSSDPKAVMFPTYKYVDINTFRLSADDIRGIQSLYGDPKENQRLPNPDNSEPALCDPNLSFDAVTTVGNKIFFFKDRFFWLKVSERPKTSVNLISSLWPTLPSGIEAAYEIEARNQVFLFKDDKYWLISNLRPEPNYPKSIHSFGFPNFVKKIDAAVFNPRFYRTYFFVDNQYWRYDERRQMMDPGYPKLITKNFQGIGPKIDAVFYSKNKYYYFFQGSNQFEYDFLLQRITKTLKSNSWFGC

[6] = target: T1, 72 kDa type IV collagenase; test: Inhibition of human MMP-2 using 7-methoxycoumarin-4-yl)acetyl-Pro-Leu-Gly-Leu-(N3-(2,4-dinitrophenyl)-L-2,3-diaminopropionyl)-Ala-Arg-NH2 as substrate preincubated for 5 mins followed by enzyme addition and measured after 15 mins by fluorescence based analysis
Interstitial collagenase = target: T2, Interstitial collagenase (Homo sapiens, UniProt P03956); test: Inhibition of MMP-1 (unknown origin)
T2 sequence (P03956 whole entry): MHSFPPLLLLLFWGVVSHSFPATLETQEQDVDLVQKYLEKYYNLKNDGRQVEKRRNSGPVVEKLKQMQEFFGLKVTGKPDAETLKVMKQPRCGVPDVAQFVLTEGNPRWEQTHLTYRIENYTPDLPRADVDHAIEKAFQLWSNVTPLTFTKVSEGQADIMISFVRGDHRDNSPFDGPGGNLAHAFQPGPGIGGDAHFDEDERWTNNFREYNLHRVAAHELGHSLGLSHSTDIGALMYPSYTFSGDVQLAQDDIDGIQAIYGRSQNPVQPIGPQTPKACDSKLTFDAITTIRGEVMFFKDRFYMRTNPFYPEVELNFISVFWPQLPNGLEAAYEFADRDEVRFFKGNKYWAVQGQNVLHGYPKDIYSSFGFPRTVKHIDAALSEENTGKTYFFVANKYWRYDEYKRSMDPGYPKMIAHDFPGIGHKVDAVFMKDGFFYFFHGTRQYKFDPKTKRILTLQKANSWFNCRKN

[7] = Inhibition of UVB-induced MMP-9 expression in SKH-1 hairless mouse skin at 5 nM administered topically for 1 hr followed by UVB irradiation for 15 weeks by densitometry based gelatin zymography analysis relative to control; format: functional; conditions: SKH-1, Skin of body, light or radiation study, topical, time 2521 hrs
[8] = Inhibition of UVB-induced MMP-9 expression in SKH-1 hairless mouse skin at 1 nM administered topically for 1 hr followed by UVB irradiation for 15 weeks by densitometry based gelatin zymography analysis relative to control; format: functional; conditions: SKH-1, Skin of body, light or radiation study, topical, time 2521 hrs
[9] = Inhibition of UV light-induced MMP-1 expression in HDF-N cells at 5 ppm by ELISA relative to control; format: functional; conditions: Homo sapiens
[10] = Inhibition of UV light -induced MMP-1 expression in HDF-N cells at 1 ppm by ELISA relative to control; format: functional; conditions: Homo sapiens
[11] = Inhibition of UV light-induced MMP-1 expression in HDF-N cells at 10 ppm by ELISA relative to control; format: functional; conditions: Homo sapiens
[12] = Cytotoxicity against human CCD-986Sk cells assessed as cell viability by MTT assay relative to control; format: toxicity, cell-based; conditions: read-out: Activity
[13] = Inhibition of MMP-2 mRNA expression in UVB-irradiated human Hs68 cells at 10 uM relative to control; format: functional; conditions: Hs68, light or radiation study
[14] = Inhibition of MMP-1 mRNA expression in UVB-irradiated human Hs68 cells at 10 uM relative to control; format: functional; conditions: Hs68, light or radiation study

Oc1ccc2c(c1)OC[C@]1(O)Cc3cc(O)c(O)cc3[C@H]21 [BRAZILIN]
Activity [1]: 50%
Activity [2]: 50%

COc1ccc(S(=O)(=O)N(CC(=O)NO)CC(C)C)cc1
IC50 [3]: 70 nM

COc1ccc(/C=N/Nc2nc(C)cc(=O)[nH]2)cc1
IC50 (Stromelysin-2): 53 nM

C[C@H](C[C@H](CO)NC(=O)c1ccc(Oc2ccccc2)cc1)C(=O)NO
IC50 [4]: 0.8 nM
IC50 [5]: 3.5 nM
IC50 [6]: 0.65 nM

O=C1OC[C@H]2OC(O)[C@@H]3OC(=O)c4cc(O)c(O)c(O)c4-c4c(cc(O)c(O)c4O)C(=O)O[C@@H]3[C@@H]2OC(=O)c2cc(O)c(O)c(O)c2-c2c1cc(O)c(O)c2O (some centres not stated)
IC50 (Interstitial collagenase): 9750 nM

C[C@H](C[C@H](COC(=O)CCC(=O)O)NC(=O)c1ccc(Oc2ccccc2)cc1)C(=O)NO
IC50 [4]: 2.8 nM
IC50 [5]: 2.6 nM
IC50 [6]: 1.1 nM

O=c1c(O)c(-c2cc(O)c(O)c(O)c2)oc2cc(O)cc(O)c12 [MYRICETIN]
inhibition in vivo at 0.005 µM [7]: 80%
inhibition in vivo at 0.001 µM [8]: 55%

O=C(O[C@@H]1Cc2c(O)cc(O)cc2O[C@@H]1c1cc(O)c(O)c(O)c1)c1cc(O)c(O)c(O)c1 [EPIGALOCATECHIN GALLATE]
IC50 (Interstitial collagenase): 7900 nM

CC(=O)N1C2NC(C)=CC(=O)N2C(c2ccc(Br)cc2)N1C(C)=O (configuration not stated)
IC50 (Stromelysin-2): 24 nM

O=C1c2cc(O)cc(O)c2CN1c1ccc(O)cc1
inhibition at 5 µg/mL [9]: 27.6%
inhibition at 1 µg/mL [10]: 33.9%
inhibition at 10 µg/mL [11]: 27.5%

COc1cc(/C=C/C(=O)O)ccc1O [FERULATE]
viability [12]: > 80%

CC(=O)N1c2nc(=O)cc(C)n2C(c2ccc(Br)cc2)N1C(C)=O (configuration not stated)
IC50 (Stromelysin-2): 1630 nM

COc1cc2ccnc3c2c(c1OC)NC=C3 [AAPTAMINE]
inhibition at 10 µM [13]: 87.4%
inhibition at 10 µM [14]: 53.6%
